Measurements: patent US12077503B2, “Substituted cyclic amides and their use as herbicides” (FMC CORPORATION, priority 2015, dated 2024)

Assays:
Assay type in all cases: in vivo
Kochia (Kochia scoparia) [1] = assay: Test A preemergence; conditions: Bassia scoparia, pre-emergence, 240 h, Preemergence
Outline: (§1)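 Visual injury scores from 0, no effect, to 100, complete control, were assigned versus untreated controls roughly 10 d after treatment in the greenhouse. Test chemicals, formulated with surfactant in a non-phytotoxic solvent, were applied to planted seeds as a preemergence soil spray or postemergence to one- to two-leaf plants 2 to 10 cm tall, in loam–sand soil.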

[2] = tested on: barnyardgrass (Echinochloa crus-galli); assay: Test A preemergence; conditions: Echinochloa crus-galli, pre-emergence, 240 h, Preemergence
Outline: as §1

[3] = tested on: giant foxtail (Setaria faberii); assay: Test A preemergence; conditions: Setaria faberi, pre-emergence, 240 h, Preemergence
Outline: as §1

[4] = tested on: pigweed (Amaranthus retroflexus); assay: Test A preemergence; conditions: Amaranthus retroflexus, pre-emergence, 240 h, Preemergence
[5] = tested on: ragweed (common ragweed, Ambrosia elatior); assay: Test A preemergence; conditions: Ambrosia artemisiifolia, pre-emergence, 240 h, Preemergence
Outline: as §1

[6] = tested on: ryegrass, Italian (Italian ryegrass, Lolium multiflorum); assay: Test A preemergence; conditions: Lolium multiflorum, pre-emergence, 240 h, Preemergence
Outline: as §1

[7] = tested on: Galium (catchweed bedstraw, Galium aparine); assay: Test A postemergence; conditions: Galium, post-emergence, 240 h, Postemergence
Outline: as §1

Kochia (Kochia scoparia) [8] = assay: Test A postemergence; conditions: Bassia scoparia, post-emergence, 240 h, Postemergence
Outline: as §1

[9] = tested on: barnyardgrass (Echinochloa crus-galli); assay: Test A postemergence; conditions: Echinochloa crus-galli, post-emergence, 240 h, Postemergence
Outline: as §1

[10] = tested on: blackgrass (Alopecurus myosuroides); assay: Test A postemergence; conditions: Alopecurus myosuroides, post-emergence, 240 h, Postemergence
Outline: as §1

corn (Zea mays) = assay: Test A postemergence; conditions: Zea mays, post-emergence, 240 h, Postemergence
Outline: as §1

[11] = tested on: giant foxtail (Setaria faberii); assay: Test A postemergence; conditions: Setaria faberi, post-emergence, 240 h, Postemergence
Outline: as §1

[12] = tested on: pigweed (Amaranthus retroflexus); assay: Test A postemergence; conditions: Amaranthus retroflexus, post-emergence, 240 h, Postemergence
Outline: as §1

[13] = tested on: ragweed (common ragweed, Ambrosia elatior); assay: Test A postemergence; conditions: Ambrosia artemisiifolia, post-emergence, 240 h, Postemergence
Outline: as §1

[14] = tested on: ryegrass, Italian (Italian ryegrass, Lolium multiflorum); assay: Test A postemergence; conditions: Lolium multiflorum, post-emergence, 240 h, Postemergence
Outline: as §1

[15] = tested on: wheat (Triticum aestivum); assay: Test A postemergence; conditions: Triticum aestivum, post-emergence, 240 h, Postemergence
Outline: as §1

[16] = tested on: barnyardgrass (Echinochloa crus-galli); assay: Test B flooded paddy test; conditions: Echinochloa crus-galli, 360 h, Flood, 250 g ai/ha; visually evaluated after 13 to 15 d; read-out: Plant response rating, Barnyardgrass (0 to 100 scale where 0 is no effect and 100 is complete control)
Outline: (§2)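 Compound goes directly into floodwater once pots are flooded 3 cm above soil, targeting plants at two leaves; the water depth is then held for the test duration. Plants sit 13–15 d in a greenhouse and are rated visually, 100 denoting complete control.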

[17] = tested on: ducksalad (Heteranthera limosa); assay: Test B flooded paddy test; conditions: Heteranthera limosa, 360 h, Flood, 250 g ai/ha; visually evaluated after 13 to 15 d; read-out: Plant response rating, Ducksalad (0 to 100 scale where 0 is no effect and 100 is complete control)
Outline: as §2

rice (Oryra sativa) = assay: Test B flooded paddy test; conditions: Oryza sativa, 360 h, Flood, 250 g ai/ha; visually evaluated after 13 to 15 d; read-out: Plant response rating, Rice (0 to 100 scale where 0 is no effect and 100 is complete control)
Outline: as §2

[18] = tested on: sedge, umbrella (small-flower umbrella sedge, Cyperus difformis); assay: Test B flooded paddy test; conditions: Cyperus difformis, 360 h, Flood, 250 g ai/ha; visually evaluated after 13 to 15 d; read-out: Plant response rating, Sedge, Umbrella (0 to 100 scale where 0 is no effect and 100 is complete control)
Outline: as §2

## CN1C[C@H](c2ccc(Br)cc2)[C@@H](C(=O)Nc2ccc(F)c(F)c2F)C1=O [Compound 1393]
Kochia (Kochia scoparia) [1]; 31 g ai/ha, 0 to 100 scale where 0 is no effect and 100 is complete control, read-out: Kochia plant response rating
  pest or weed control at 31 g/ha: 40%
Kochia (Kochia scoparia) [1]; 125 g ai/ha, 0 to 100 scale (0 no effect, 100 complete control), read-out: Plant response rating, Kochia
  pest or weed control at 125 g/ha: 70%
[2]; 31 g ai/ha, 0 to 100 scale where 0 is no effect and 100 is complete control, read-out: Barnyardgrass plant response rating
  pest or weed control at 31 g/ha: 40%
[2]; 125 g ai/ha, 0 to 100 scale (0 no effect, 100 complete control), read-out: Plant response rating, Barnyardgrass
  pest or weed control at 125 g/ha: 90%
[3]; 31 g ai/ha, 0 to 100 scale where 0 is no effect and 100 is complete control, read-out: Foxtail, Giant plant response rating
  pest or weed control at 31 g/ha: 80%
[3]; 125 g ai/ha, 0 to 100 scale (0 no effect, 100 complete control), read-out: Plant response rating, Foxtail, Giant
  pest or weed control at 125 g/ha: 90%
[4]; 31 g ai/ha, 0 to 100 scale where 0 is no effect and 100 is complete control, read-out: Pigweed plant response rating
  pest or weed control at 31 g/ha: 30%
[4]; 125 g ai/ha, 0 to 100 scale (0 no effect, 100 complete control), read-out: Plant response rating, Pigweed
  pest or weed control at 125 g/ha: 80%
[5]; 31 g ai/ha, 0 to 100 scale where 0 is no effect and 100 is complete control, read-out: Ragweed plant response rating
  pest or weed control at 31 g/ha: 30%
[5]; 125 g ai/ha, 0 to 100 scale (0 no effect, 100 complete control), read-out: Plant response rating, Ragweed
  pest or weed control at 125 g/ha: 90%
[6]; 31 g ai/ha, 0 to 100 scale where 0 is no effect and 100 is complete control, read-out: Ryegrass, Italian plant response rating
  pest or weed control at 31 g/ha: 0%
[6]; 125 g ai/ha, 0 to 100 scale (0 no effect, 100 complete control), read-out: Plant response rating, Ryegrass, Italian
  pest or weed control at 125 g/ha: 20%
[7]; 31 g ai/ha, 0 is no effect, 100 is complete control, read-out: Galium plant response rating (0 to 100 scale)
  pest or weed control at 31 g/ha: 50%
[7]; 125 g ai/ha, visual injury after approx. 10 d, 0 to 100 scale, 0 no effect, 100 complete control, read-out: Plant response rating, Galium
  pest or weed control at 125 g/ha: 60%
Kochia (Kochia scoparia) [8]; 31 g ai/ha, 0 is no effect, 100 is complete control, read-out: Kochia plant response rating (0 to 100 scale)
  pest or weed control at 31 g/ha: 30%
Kochia (Kochia scoparia) [8]; 125 g ai/ha, visual injury after approx. 10 d, 0 to 100 scale, 0 no effect, 100 complete control, read-out: Plant response rating, Kochia
  pest or weed control at 125 g/ha: 70%
[9]; 31 g ai/ha, 0 is no effect, 100 is complete control, read-out: Barnyardgrass plant response rating (0 to 100 scale)
  pest or weed control at 31 g/ha: 70%
[9]; 125 g ai/ha, visual injury after approx. 10 d, 0 to 100 scale, 0 no effect, 100 complete control, read-out: Plant response rating, Barnyardgrass
  pest or weed control at 125 g/ha: 90%
[10]; 31 g ai/ha, 0 is no effect, 100 is complete control, read-out: Blackgrass plant response rating (0 to 100 scale)
  pest or weed control at 31 g/ha: 20%
[10]; 125 g ai/ha, visual injury after approx. 10 d, 0 to 100 scale, 0 no effect, 100 complete control, read-out: Plant response rating, Blackgrass
  pest or weed control at 125 g/ha: 30%
Corn (Zea mays); 31 g ai/ha, 0 is no effect, 100 is complete control, read-out: Corn plant response rating (0 to 100 scale)
  plant injury at 31 g/ha: 0%
Corn (Zea mays); 125 g ai/ha, visual injury after approx. 10 d, 0 to 100 scale, 0 no effect, 100 complete control
  Corn plant response rating (crop injury, 0 = no effect, 100 = complete kill) at 125 g/ha: 80%
[11]; 31 g ai/ha, 0 is no effect, 100 is complete control, read-out: Foxtail, Giant plant response rating (0 to 100 scale)
  pest or weed control at 31 g/ha: 70%
[11]; 125 g ai/ha, visual injury after approx. 10 d, 0 to 100 scale, 0 no effect, 100 complete control, read-out: Plant response rating, Foxtail, Giant
  pest or weed control at 125 g/ha: 90%
[12]; 31 g ai/ha, 0 is no effect, 100 is complete control, read-out: Pigweed plant response rating (0 to 100 scale)
  pest or weed control at 31 g/ha: 40%
[12]; 125 g ai/ha, visual injury after approx. 10 d, 0 to 100 scale, 0 no effect, 100 complete control, read-out: Plant response rating, Pigweed
  pest or weed control at 125 g/ha: 60%
[13]; 31 g ai/ha, 0 is no effect, 100 is complete control, read-out: Ragweed plant response rating (0 to 100 scale)
  pest or weed control at 31 g/ha: 0%
[13]; 125 g ai/ha, visual injury after approx. 10 d, 0 to 100 scale, 0 no effect, 100 complete control, read-out: Plant response rating, Ragweed
  pest or weed control at 125 g/ha: 50%
[14]; 31 g ai/ha, 0 is no effect, 100 is complete control, read-out: Ryegrass, Italian plant response rating (0 to 100 scale)
  pest or weed control at 31 g/ha: 0%
[14]; 125 g ai/ha, visual injury after approx. 10 d, 0 to 100 scale, 0 no effect, 100 complete control, read-out: Plant response rating, Ryegrass, Italian
  pest or weed control at 125 g/ha: 20%
[15]; 31 g ai/ha, 0 is no effect, 100 is complete control, read-out: Wheat plant response rating (0 to 100 scale)
  plant injury at 31 g/ha: 0%
[15]; 125 g ai/ha, visual injury after approx. 10 d, 0 to 100 scale, 0 no effect, 100 complete control, read-out: Plant response rating, Wheat
  plant injury at 125 g/ha: 30%
[16]
  pest or weed control at 250 g/ha: 85%
[17]
  pest or weed control at 250 g/ha: 100%
Rice (Oryra sativa)
  pest or weed control at 250 g/ha: 55%
[18]
  pest or weed control at 250 g/ha: 0%
